Reference: the PolyMetriX glass transition set
± gives the standard deviation of the reports.

| glass transition temperature | SMILES |
| --- | --- |
| 99.00 °C | *Oc1cc(OCCOC)c(OC(=O)c2ccc(C(*)=O)cc2OCCOCC)cc1OCCOC (repeat unit) |
| -39.00 °C | *C/C=C/COC(=O)NCCCCCCNC(=O)O* (repeat unit) |
| 253.00 °C | *Oc1ccc(C(c2ccc(OC(*)=O)cc2)C2CC3CC2C2C4CCC(C4)C32)cc1 (repeat unit) |
| -37.00 °C | *O[Si](*)(C)CCCOC(=O)c1cc(OC(=O)c2ccc(OCCOCCOCCOCCOC)cc2)ccc1OC(=O)c1ccc(OCCOCCOCCOCCOC)cc1 (repeat unit) |
| 155.00 °C | *CCCC(C)CN1C(=O)c2ccc(C(=O)Oc3ccc(-c4ccc(OC(=O)c5ccc6c(c5)C(=O)N(*)C6=O)cc4)cc3)cc2C1=O (repeat unit) |
| 44.00 °C | *CCCCOC(=O)c1ccc(C(C)(C)c2ccc(C(=O)O*)cc2)cc1 (repeat unit) |
| -10.00 °C | *Oc1c(C)cc(*)cc1C(C)CCCCCCCCCCCC (repeat unit) |
| 62.00 °C | *CCOCCOc1ccc(N/C=N/c2ccc(O*)cc2)cc1 (repeat unit) |
| 360.00 °C | *C(=O)Oc1ccc(OC(=O)c2ccc3c(c2)C(=O)N(C2CCC(N4C(=O)c5ccc(*)cc5C4=O)CC2)C3=O)cc1 (repeat unit) |
| -31.00 °C | *CCOCCOCCOCCOCCOCCOC(=O)NCCCCCCNC(=O)O* (repeat unit) |
| 208.00 °C | *CC(c1ccccc1)C1C(=O)N(c2ccc(NC(=O)OCC3CCCN3c3ccc([N+](=O)[O-])cc3)cc2)C(=O)C1* (repeat unit) |
| 165.00 °C | *CCCC1(CCCNC(=O)CCC2(CCC(=O)N*)c3ccccc3-c3ccccc32)c2ccccc2-c2ccccc21 (repeat unit) |
| 158.00 °C | *CCN(CCOC(=O)Nc1ccc(C)c(NC(=O)O*)c1)c1ccc(/N=N/c2ccc(-c3nc4ccc([N+](=O)[O-])cc4n3CC)cc2)cc1 (repeat unit) |
| 117.00 °C | *Oc1ccc(C(C)(CCC#N)c2ccc(OC(*)=O)c(C)c2)cc1C (repeat unit) |
| 321.00 °C | *Nc1ccc(NC(=O)c2cc(NC(=O)c3ccccc3)cc(C(*)=O)c2)cc1 (repeat unit) |
| 270.00 °C | *NNC(=O)c1ccc(C(=O)NNC(=O)c2ccc([Si](c3ccccc3)(c3ccccc3)c3ccc(C(*)=O)cc3)cc2)c2ccccc12 (repeat unit) |
| 108.00 °C | *c1ccc(C(C#N)(C(=O)OCCCC)C(*)(C#N)C(=O)OCCCC)cc1 (repeat unit) |

| glass transition temperature | SMILES |
| --- | --- |
| 32.00 °C | *CC(CC)C(CC)COC(=O)c1ccc(C(=O)O*)cc1 (repeat unit) |
| 107.00 °C | *Oc1ccc(OC(=O)c2ccc(C(*)=O)cc2Oc2ccc(Cl)cc2)cc1 (repeat unit) |
| 119.00 °C | *OC(COC(=O)c1cccc(C(*)=O)c1)COc1ccc(/N=N/c2ccc(C#N)cc2)cc1 (repeat unit) |
| 60.00 °C | */C=C/c1cc(OCCCCCC)c(*)cc1OC (repeat unit) |
| 243.00 °C | *Oc1ccc(C2(c3ccc(Oc4ccc(C(=O)c5ccc(C(=O)c6ccc(*)cc6)cc5)cc4)cc3)c3ccccc3-c3ccccc32)cc1 (repeat unit) |
| 58.00 °C | *CCCCCCCCCOC(=O)NCCCCCCNC(=O)O* (repeat unit) |
| 161.00 °C | *CC(O)COc1ccc(C(C)(C)c2ccc(OCC(O)COc3ccc(C4(c5ccc(O*)cc5)c5ccccc5-c5ccccc54)cc3)cc2)cc1 (repeat unit) |
| 155.00 °C | *Oc1ccc2ccc(Oc3ccc(C(=O)Nc4ccc(C(C)(C)c5ccc(C(C)(C)c6ccc(NC(=O)c7ccc(*)cc7)cc6)cc5)cc4)cc3)cc2c1 (repeat unit) |
| 97.00 °C | *CC(*)(C)C(=O)OCCCOc1ccc(-c2ccc(C#N)cc2)cc1 (repeat unit) |
| 86.00 °C | *CCN(CCOC(=O)c1cc(OCCC2CCN(c3ccc(S(=O)(=O)C(F)(F)C(F)(F)C(F)(F)C(F)(F)C(F)(F)C(F)(F)C(F)(F)C(F)(F)F)cc3)CC2)cc(C(=O)O*)c1)c1ccc(S(=O)(=O)C(F)(F)C(F)(F)C(F)(F)C(F)(F)C(F)(F)C(F)(F)C(F)(F)C(F)(F)F)cc1 (repeat unit) |
| 61.00 °C | *CC1CCC(COC(C)OC(=O)c2ccc(C(=O)OC(C)O*)cc2)CC1 (repeat unit) |
| 107.00 °C | *c1cccc(S(=O)(=O)NCCNS(*)(=O)=O)c1 (repeat unit) |
| 166.00 °C | *CC(*)c1ccc(Cn2c3ccccc3c3ccccc32)cc1 (repeat unit) |
| -62.50 °C | *CCCCOC(=O)CCCCCCCC(=O)O* (repeat unit) |
| 30.00 °C | *CCN(CCOC(=O)CCC#CC#CCCC(=O)O*)c1ccc([N+](=O)[O-])cc1 (repeat unit) |
| 43.00 °C | *C1C(=O)N(CCCCCCCCOc2ccc(-c3ccc(C#N)cc3)cc2)C(=O)C1* (repeat unit) |

More lines, now with the values behind:

| SMILES | glass transition temperature |
| --- | --- |
| *CC(*)(C)C(=O)OC1CC(C)CCC1C(C)C (repeat unit) | 147.00 °C |
| *C(=O)Nc1ccc(Cc2ccc(NC(=O)c3ccc4c(c3)C(=O)N(c3ccc(-c5sc(-c6ccc(N7C(=O)c8ccc(*)cc8C7=O)cc6)c(-c6ccccc6)c5-c5ccccc5)cc3)C4=O)cc2)cc1 (repeat unit) | 253.00 °C |
| *C(=O)c1ccc2c(c1)C(=O)N(c1cccc(S(=O)(=O)c3cccc(N4C(=O)c5ccc(*)cc5C4=O)c3)c1)C2=O (repeat unit) | 275.50 ± 3.5 °C |
| *c1ccc(Oc2ccc(-c3ccc(Oc4ccc(N5C(=O)c6cccc(Oc7c(C)cc(-c8cc(C)c(Oc9cccc%10c9C(=O)N(*)C%10=O)c(C)c8)cc7C)c6C5=O)cc4)cc3)cc2)cc1 (repeat unit) | 290.00 °C |
| *c1cc(Br)c(-c2c(Br)cc(N3C(=O)c4ccc(-c5ccc6c(c5)C(=O)N(*)C6=O)cc4C3=O)cc2C(=O)OCCCCCCCCCCCCCCCC)c(C(=O)OCCCCCCCCCCCCCCCC)c1 (repeat unit) | 92.00 °C |
| *c1ccc(Cc2ccc(N3C(=O)c4ccc(Oc5ccc6c(c5)C(=O)N(*)C6=O)cc4C3=O)cc2)cc1 (repeat unit) | 271.00 °C |
| *CC(*)(F)C(=O)OC(C(F)(F)F)C(F)(F)F (repeat unit) | 102.00 °C |
| *c1cccc(N2C(=O)c3ccc(Oc4ccc(C(C)(C)c5ccc(Oc6ccc7c(c6)C(=O)N(*)C7=O)cc5)cc4)cc3C2=O)c1 (repeat unit) | 217.50 °C |
| *CC(COc1ccccc1)O* (repeat unit) | 42.00 °C |
| *C#CC#Cc1cc(C(C)(C)C)cc2c3cc(C(C)(C)C)cc(*)c3n(CCCCCCCCCCCCCCCC)c12 (repeat unit) | 67.00 °C |
| *CCSSCCOCO* (repeat unit) | -57.50 °C |
| *CC(*)(C)C(=O)OCC1CCCO1 (repeat unit) | 105.00 °C |
| *c1ccc2c(c1)C(=O)N(c1cccc(C(F)(F)C(F)(F)C(F)(F)C(F)(F)C(F)(F)c3cccc(N4C(=O)c5ccc(C(F)(F)C(F)(F)C(F)(F)C(*)(F)F)cc5C4=O)c3)c1)C2=O (repeat unit) | 144.00 °C |
| *C(=O)Nc1ccc(NC(=O)c2ccc3[nH]c(-c4cc(-c5nc6cc(*)ccc6[nH]5)cc(N5C(=O)c6ccccc6C5=O)c4)nc3c2)cc1 (repeat unit) | 295.00 °C |
| *CC(*)(F)C(=O)OCC (repeat unit) | 94.00 °C |
| *c1ccc(-n2ccc(-c3ccc(-c4ccn(*)n4)cc3)n2)cc1 (repeat unit) | 75.00 °C |
| *C(C)C(*)C(=O)OCCC (repeat unit) | 116.00 °C |
| *CCCCCCOC(=O)O* (repeat unit) | -42.00 °C |
| *C(=O)Nc1cccc2c(NC(=O)c3ccc4c(c3)C(=O)N(c3ccc(Oc5cccc6c(N7C(=O)c8ccc(*)cc8C7=O)cccc56)cc3)C4=O)cccc12 (repeat unit) | 299.00 °C |
| *C(=O)Nc1ccc(Cc2ccc(N3C(=O)CC(N4C(=O)c5ccc(*)cc5C4=O)C3=O)cc2)cc1 (repeat unit) | 123.00 °C |
| *Oc1ccc(S(=O)(=O)c2ccc(-c3ccc(-c4ccc(S(=O)(=O)c5ccc(*)cc5)cc4)cc3)cc2)cc1 (repeat unit) | 311.00 °C |
| *c1ccc(Oc2ccc(-c3nc4cc(Oc5ccc(NC(=O)c6ccc7c(c6)C(=O)N(c6ccc(C(c8ccc(N9C(=O)c%10ccc(C(=O)Nc%11ccc(Oc%12ccc%13nc(-c%14ccc([N+](=O)[O-])cc%14)c(*)nc%13c%12)cc%11)cc%10C9=O)cc8)(C(F)(F)F)C(F)(F)F)cc6)C7=O)cc5)ccc4nc3-c3ccc([N+](=O)[O-])cc3)cc2)cc1 (repeat unit) | 303.00 °C |
| *CC(*)OC(=O)CCl (repeat unit) | 20.5 °C |
| *C(=O)c1ccc2c(c1)C(=O)N(c1cccc(NC(=O)c3cccc(C(=O)Nc4cccc(N5C(=O)c6ccc(*)cc6C5=O)c4)c3)c1)C2=O (repeat unit) | 204.00 °C |
| *CCOCCOP(=O)(/N=N/c1ccc(Oc2ccc(/N=N/P(=O)(O*)OC)cc2)cc1)OC (repeat unit) | 32.00 °C |
| *c1ccc(Oc2ccc(-c3cc(-c4ccccc4)c4cc5c(-c6ccccc6)cc(*)nc5cc4n3)cc2)cc1 (repeat unit) | 380.50 °C |
| *C(=O)Nc1ccc(Oc2ccccc2-c2ccccc2Oc2ccc(NC(=O)c3ccc4c(c3)C(=O)N(c3ccc(Oc5ccc(N6C(=O)c7ccc(*)cc7C6=O)cc5)cc3)C4=O)cc2)cc1 (repeat unit) | 239.00 °C |
| *C(=O)Nc1ccc(-c2ccc(NC(=O)c3ccc4c(c3)C(=O)N(c3ccc(NC(=O)Nc5ccc(N6C(=O)c7ccc(*)cc7C6=O)cc5)cc3)C4=O)cc2)cc1 (repeat unit) | 233.00 °C |
| *c1ccc2c(c1)C(=O)N(c1cccc(C(=O)Nc3ccc(NC(=O)c4ccc(NC(=O)c5cccc(N6C(=O)c7ccc(C(*)(C(F)(F)F)C(F)(F)F)cc7C6=O)c5)cc4)cc3)c1)C2=O (repeat unit) | 328.00 °C |
| *C(F)C(*)(F)OC(F)(F)F (repeat unit) | -10.00 °C |
